Values joined by “and” are separate entries in the source; they are usually repeats but may differ in a detail not shown here. Identical values can stand only once. Inconclusive results and toxic doses are left out. The calls were made as follows: active = survival T/C of 150% or more; inactive = T/C below 125% in these data.
Tested on: P388 leukemia ip, CD2F1 mice, survival T/C
Test: NCI In Vivo Anticancer Drug Screen. Data for tumor model P388 Leukemia (intraperitoneal) in CD2F1 (CDF1) mice
Conditions: endpoint: median survival time, higher = longer survival
Summary of the method: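 Mice carrying the transplanted tumor received test compound or vehicle. Survival was recorded in each group, and the value is the treated-group measurement divided by that of the vehicle-treated control group.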

[1] = dose: 50.0 mg/kg/injection, schedule: Q01DX009 (ip), vehicle: saline with Tween-80
[2] = dose: 100.0 mg/kg/injection, schedule: Q01DX009 (ip), vehicle: saline with Tween-80
[3] = dose: 200.0 mg/kg/injection, schedule: Q01DX009 (ip), vehicle: saline with Tween-80
[4] = dose: 60.0 mg/kg/injection, schedule: Q01DX005 (ip), vehicle: saline with Tween-80
[5] = dose: 120.0 mg/kg/injection, schedule: Q01DX005 (ip), vehicle: saline with Tween-80
[6] = dose: 240.0 mg/kg/injection, schedule: Q01DX005 (ip), vehicle: saline with Tween-80
[7] = dose: 50.0 mg/kg/injection, schedule: Q01DX005 (ip), vehicle: Klucel (hydroxypropylcellulose) (HPC)
[8] = dose: 100.0 mg/kg/injection, schedule: Q01DX005 (ip), vehicle: Klucel (hydroxypropylcellulose) (HPC)
[9] = dose: 200.0 mg/kg/injection, schedule: Q01DX005 (ip), vehicle: Klucel (hydroxypropylcellulose) (HPC)

Measured: T/C

CC(=O)NS(=O)(=O)c1ccc(N=NC2C(=O)N(C(=O)c3ccccc3)N=C2C)cc1 (stereo not given)
inactive: dose: 50.0 mg/kg/injection, schedule: Q01DX001 (ip), vehicle: Klucel (hydroxypropylcellulose) (HPC) 93 % of control | dose: 100.0 mg/kg/injection, schedule: Q01DX001 (ip), vehicle: Klucel (hydroxypropylcellulose) (HPC) 95 % of control | dose: 200.0 mg/kg/injection, schedule: Q01DX001 (ip), vehicle: Klucel (hydroxypropylcellulose) (HPC) 93 % of control

ClC1C(Cl)C(Cl)C(Cl)C(Cl)C1Cl (stereo not given)
inactive: dose: 12.5 mg/kg/injection, schedule: Q01DX009 (ip), vehicle: Klucel (hydroxypropylcellulose) (HPC) 104 % of control and 113 % of control | dose: 25.0 mg/kg/injection, schedule: Q01DX009 (ip), vehicle: Klucel (hydroxypropylcellulose) (HPC) 104 % of control and 97 % of control | dose: 25.0 mg/kg/injection, schedule: Q01DX009 (ip), vehicle: saline with Tween-80 100 % of control and 104 % of control | dose: 50.0 mg/kg/injection, schedule: Q01DX009 (ip), vehicle: Klucel (hydroxypropylcellulose) (HPC) 105 % of control and 98 % of control | [1] 100 % of control and 108 % of control | dose: 50.0 mg/kg/injection, schedule: Q04DX002 (ip), vehicle: saline with Tween-80 100 % of control | dose: 100.0 mg/kg/injection, schedule: Q01DX009 (ip), vehicle: Klucel (hydroxypropylcellulose) (HPC) 89 % of control and 95 % of control | [2] 100 % of control and 108 % of control | dose: 100.0 mg/kg/injection, schedule: Q04DX002 (ip), vehicle: saline with Tween-80 100 % of control | dose: 150.0 mg/kg/injection, schedule: Q01DX009 (ip), vehicle: Klucel (hydroxypropylcellulose) (HPC) 99 % of control and 87 % of control | [3] 100 % of control and 110 % of control | dose: 200.0 mg/kg/injection, schedule: Q04DX002 (ip), vehicle: saline with Tween-80 90 % of control | dose: 400.0 mg/kg/injection, schedule: Q01DX009 (ip), vehicle: saline with Tween-80 101 % of control and 114 % of control

NC(N)=NCC1CCCCCCN1 (stereo not given)
inactive: dose: 12.5 mg/kg/injection, schedule: Q01DX009 (ip), vehicle: saline 106 % of control | dose: 25.0 mg/kg/injection, schedule: Q01DX009 (ip), vehicle: saline 100 % of control | dose: 50.0 mg/kg/injection, schedule: Q01DX009 (ip), vehicle: saline 104 % of control | dose: 100.0 mg/kg/injection, schedule: Q01DX009 (ip), vehicle: saline 104 % of control

CC(=O)N1c2ccccc2C23CCN4CC5=CCOC(O)C(C5CC42)C13 (stereo not given)
inactive: dose: 20.0 mg/kg/injection, schedule: Q01DX009 (ip), vehicle: Klucel (hydroxypropylcellulose) (HPC) 107 % of control | dose: 40.0 mg/kg/injection, schedule: Q01DX009 (ip), vehicle: Klucel (hydroxypropylcellulose) (HPC) 108 % of control | dose: 80.0 mg/kg/injection, schedule: Q01DX009 (ip), vehicle: Klucel (hydroxypropylcellulose) (HPC) 110 % of control | dose: 160.0 mg/kg/injection, schedule: Q01DX009 (ip), vehicle: Klucel (hydroxypropylcellulose) (HPC) 118 % of control

OCc1ccc(Cl)cc1O
inactive: dose: 12.5 mg/kg/injection, schedule: Q01DX009 (ip), vehicle: distilled water + Tween-80 100 % of control | dose: 25.0 mg/kg/injection, schedule: Q01DX009 (ip), vehicle: distilled water + Tween-80 100 % of control | dose: 50.0 mg/kg/injection, schedule: Q01DX009 (ip), vehicle: distilled water + Tween-80 105 % of control | dose: 100.0 mg/kg/injection, schedule: Q01DX009 (ip), vehicle: distilled water + Tween-80 107 % of control | dose: 200.0 mg/kg/injection, schedule: Q01DX009 (ip), vehicle: distilled water + Tween-80 116 % of control

CC1CC(c2ccccc2Cl)C(c2ccccc2)C(=O)O1 (stereo not given)
inactive: dose: 100.0 mg/kg/injection, schedule: Q04DX003 (ip), vehicle: Klucel (hydroxypropylcellulose) (HPC) 100 % of control | dose: 200.0 mg/kg/injection, schedule: Q04DX003 (ip), vehicle: Klucel (hydroxypropylcellulose) (HPC) 106 % of control | dose: 400.0 mg/kg/injection, schedule: Q04DX003 (ip), vehicle: Klucel (hydroxypropylcellulose) (HPC) 108 % of control

Cc1nc2ccccc2nc1N
inactive: [4] 94 % of control | [5] 98 % of control | [6] 98 % of control

CN=C(NC1CCCCC1)c1ccc(NC(=O)c2ccc(C(=O)Nc3ccc(C(=NC)NC4CCCCC4)cc3)cc2)cc1
inactive: dose: 1.5 mg/kg/injection, schedule: Q01DX005 (ip), vehicle: saline with Tween-80 100 % of control | dose: 3.0 mg/kg/injection, schedule: Q01DX005 (ip), vehicle: saline with Tween-80 100 % of control | dose: 6.0 mg/kg/injection, schedule: Q01DX005 (ip), vehicle: saline with Tween-80 112 % of control | dose: 6.25 mg/kg/injection, schedule: Q01DX005 (ip), vehicle: saline with Tween-80 105 % of control

O=C(NC(CO)C(=O)O)C(Cl)Cl (stereo not given)
inactive: [7] 101 % of control | [8] 95 % of control | [9] 101 % of control

CCOC(=O)/N=c1/nc2ccn(C)c2c(NC(=O)OCC)s1
inactive: dose: 100.0 mg/kg/injection, schedule: Q04DX003 (ip), vehicle: saline with Tween-80 99 % of control | dose: 200.0 mg/kg/injection, schedule: Q04DX003 (ip), vehicle: saline with Tween-80 96 % of control | dose: 400.0 mg/kg/injection, schedule: Q04DX003 (ip), vehicle: saline with Tween-80 96 % of control

CC1=C(C)C(=O)OC1
inactive: dose: 60.0 mg/kg/injection, schedule: Q01DX005 (ip), vehicle: saline 108 % of control | dose: 120.0 mg/kg/injection, schedule: Q01DX005 (ip), vehicle: saline 107 % of control | dose: 240.0 mg/kg/injection, schedule: Q01DX005 (ip), vehicle: saline 101 % of control

Nc1nc(Cl)nc(Nc2ccc(-c3cc4ccc(-c5ncc[nH]5)cc4[nH]3)cc2)n1
inactive: dose: 60.0 mg/kg/injection, schedule: Q01DX005 (ip), vehicle: Klucel (hydroxypropylcellulose) (HPC) 88 % of control | dose: 120.0 mg/kg/injection, schedule: Q01DX005 (ip), vehicle: Klucel (hydroxypropylcellulose) (HPC) 88 % of control | dose: 240.0 mg/kg/injection, schedule: Q01DX005 (ip), vehicle: Klucel (hydroxypropylcellulose) (HPC) 87 % of control

C=C1C(=O)C[C@@H]2CC(C)(C)C[C@]12CC(=O)O
inactive: dose: 2.5 mg/kg/injection, schedule: Q01DX005 (ip), vehicle: water 90 % of control | dose: 5.0 mg/kg/injection, schedule: Q01DX005 (ip), vehicle: water 109 % of control | dose: 10.0 mg/kg/injection, schedule: Q01DX005 (ip), vehicle: water 97 % of control | dose: 20.0 mg/kg/injection, schedule: Q01DX005 (ip), vehicle: water 98 % of control | dose: 40.0 mg/kg/injection, schedule: Q01DX005 (ip), vehicle: water 101 % of control

N#CC12CCCC(=O)N1c1ccccc1S2 (stereo not given)
inactive: [4] 108 % of control | [5] 104 % of control | [6] 95 % of control

CC1CN1c1nc(N2CC2C)nc(N2CC2C)n1 (stereo not given)
inactive: dose: 1.56 mg/kg/injection, schedule: Q01DX009 (ip), vehicle: saline with Tween-80 94 % of control | dose: 3.13 mg/kg/injection, schedule: Q01DX009 (ip), vehicle: saline with Tween-80 98 % of control

COc1ccc(C2OC(=O)c3ncccc32)cc1 (stereo not given)
inactive: [1] 102 % of control | [2] 104 % of control | [3] 104 % of control

O=C1C(Cl)=C(Oc2ccccc2Cl)C(=O)C(Cl)=C1Oc1ccccc1Cl
inactive: dose: 3.12 mg/kg/injection, schedule: Q01DX005 (ip), vehicle: Klucel (hydroxypropylcellulose) (HPC) 91 % of control and 96 % of control | dose: 6.25 mg/kg/injection, schedule: Q01DX005 (ip), vehicle: Klucel (hydroxypropylcellulose) (HPC) 98 % of control and 92 % of control | dose: 12.5 mg/kg/injection, schedule: Q01DX005 (ip), vehicle: Klucel (hydroxypropylcellulose) (HPC) 86 % of control and 87 % of control and 97 % of control | [7] 102 % of control | [8] 99 % of control | [9] 96 % of control
